Data as given in PubChem BioAssay (NCI).
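These data come from cells grown in 96-well plates and exposed to compound for 48 hours at five concentrations. TGI marks complete inhibition of growth.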

Tests used:
Test in all cases: DTP human tumour cell line panel, 48 h
NCI-H522 lung = tested on: NCI-H522 lung
DMS 114 small cell lung = tested on: DMS 114 small cell lung
COLO 205 colon = tested on: COLO 205 colon
SK-OV-3 ovarian = tested on: SK-OV-3 ovarian
SF-539 CNS = tested on: SF-539 CNS
SNB-78 CNS = tested on: SNB-78 CNS
SF-295 CNS = tested on: SF-295 CNS
SW-620 colon = tested on: SW-620 colon
DMS 273 small cell lung = tested on: DMS 273 small cell lung
M14 melanoma = tested on: M14 melanoma
NCI-H23 lung = tested on: NCI-H23 lung
XF 498 CNS = tested on: XF 498 CNS
A498 renal = tested on: A498 renal
A549 NSCLC = tested on: A549 NSCLC
SK-MEL-5 melanoma = tested on: SK-MEL-5 melanoma
UACC-257 melanoma = tested on: UACC-257 melanoma
OVCAR-3 ovarian = tested on: OVCAR-3 ovarian
SK-MEL-2 melanoma = tested on: SK-MEL-2 melanoma
OVCAR-4 ovarian = tested on: OVCAR-4 ovarian
UACC-62 melanoma = tested on: UACC-62 melanoma
DLD-1 colon = tested on: DLD-1 colon
KM12 colon = tested on: KM12 colon
NCI-H460 lung = tested on: NCI-H460 lung
HL-60(TB) leukemia = tested on: HL-60(TB) leukemia
LXFL 529 NSCLC = tested on: LXFL 529 NSCLC
MALME-3M melanoma = tested on: MALME-3M melanoma
U251 CNS = tested on: U251 CNS
OVCAR-8 ovarian = tested on: OVCAR-8 ovarian
HCC-2998 colon = tested on: HCC-2998 colon
OVCAR-5 ovarian = tested on: OVCAR-5 ovarian
NCI-H226 lung = tested on: NCI-H226 lung
EKVX NSCLC = tested on: EKVX NSCLC
SNB-75 CNS = tested on: SNB-75 CNS
SK-MEL-28 melanoma = tested on: SK-MEL-28 melanoma
CAKI-1 renal = tested on: CAKI-1 renal
SR leukemia = tested on: SR leukemia
M19-MEL melanoma = tested on: M19-MEL melanoma
UO-31 renal = tested on: UO-31 renal
IGROV1 ovarian = tested on: IGROV1 ovarian
HT29 colon = tested on: HT29 colon
CCRF-CEM leukemia = tested on: CCRF-CEM leukemia
LOX IMVI melanoma = tested on: LOX IMVI melanoma
HCT-15 colon = tested on: HCT-15 colon
HCT-116 colon = tested on: HCT-116 colon
TK-10 renal = tested on: TK-10 renal
KM20L2 colon = tested on: KM20L2 colon
HOP-92 NSCLC = tested on: HOP-92 NSCLC
MOLT-4 leukemia = tested on: MOLT-4 leukemia
HOP-62 NSCLC = tested on: HOP-62 NSCLC
SF-268 CNS = tested on: SF-268 CNS
SN12C renal = tested on: SN12C renal
SNB-19 CNS = tested on: SNB-19 CNS
786-0 renal = tested on: 786-0 renal
ACHN renal = tested on: ACHN renal
K-562 leukemia = tested on: K-562 leukemia
RPMI-8226 leukemia = tested on: RPMI-8226 leukemia
RXF 393 renal = tested on: RXF 393 renal

O=c1[nH]cnc2c1sc(=S)n2-c1ccccc1
TGI (NCI-H522 lung): > 100 µM
TGI (DMS 114 small cell lung): > 100 µM
TGI (COLO 205 colon): > 100 µM
TGI (SK-OV-3 ovarian): > 100 µM
TGI (SF-539 CNS): > 100 µM
TGI (SNB-78 CNS): > 100 µM
TGI (SF-295 CNS): > 100 µM
TGI (SW-620 colon): > 100 µM
TGI (DMS 273 small cell lung): > 100 µM
TGI (M14 melanoma): > 100 µM
TGI (NCI-H23 lung): > 100 µM
TGI (XF 498 CNS): > 100 µM
TGI (A498 renal): > 100 µM
TGI (A549 NSCLC): > 100 µM
TGI (SK-MEL-5 melanoma): > 100 µM
TGI (UACC-257 melanoma): > 100 µM
TGI (OVCAR-3 ovarian): > 100 µM
TGI (SK-MEL-2 melanoma): > 100 µM
TGI (OVCAR-4 ovarian): > 100 µM
TGI (UACC-62 melanoma): > 100 µM
TGI (DLD-1 colon): > 100 µM
TGI (KM12 colon): > 100 µM
TGI (NCI-H460 lung): > 100 µM
TGI (HL-60(TB) leukemia): > 100 µM
TGI (LXFL 529 NSCLC): > 100 µM
TGI (MALME-3M melanoma): > 100 µM
TGI (U251 CNS): > 100 µM
TGI (OVCAR-8 ovarian): > 100 µM
TGI (HCC-2998 colon): > 100 µM
TGI (OVCAR-5 ovarian): > 100 µM
TGI (NCI-H226 lung): > 100 µM
TGI (EKVX NSCLC): > 100 µM
TGI (SNB-75 CNS): > 100 µM
TGI (SK-MEL-28 melanoma): > 100 µM
TGI (CAKI-1 renal): > 100 µM
TGI (SR leukemia): > 100 µM
TGI (M19-MEL melanoma): > 100 µM
TGI (UO-31 renal): > 100 µM
TGI (IGROV1 ovarian): > 100 µM
TGI (HT29 colon): > 100 µM
TGI (CCRF-CEM leukemia): > 100 µM
TGI (LOX IMVI melanoma): > 100 µM
TGI (HCT-15 colon): > 100 µM
TGI (HCT-116 colon): > 100 µM
TGI (TK-10 renal): > 100 µM
TGI (KM20L2 colon): > 100 µM
TGI (HOP-92 NSCLC): > 100 µM
TGI (MOLT-4 leukemia): > 100 µM
TGI (HOP-62 NSCLC): > 100 µM
TGI (SF-268 CNS): > 100 µM
TGI (SN12C renal): > 100 µM
TGI (SNB-19 CNS): > 100 µM
TGI (786-0 renal): > 100 µM
TGI (ACHN renal): > 100 µM
TGI (K-562 leukemia): > 100 µM

Clc1ccc(-c2nnc3c4nnc(-c5ccc(Cl)cc5Cl)n4c4ccccc4n23)c(Cl)c1
TGI (NCI-H522 lung): > 100 µM
TGI (DMS 114 small cell lung): > 100 µM
TGI (COLO 205 colon): > 100 µM
TGI (SK-OV-3 ovarian): > 100 µM
TGI (SF-539 CNS): > 100 µM
TGI (SNB-78 CNS): > 100 µM
TGI (SF-295 CNS): > 100 µM
TGI (SW-620 colon): > 100 µM
TGI (DMS 273 small cell lung): > 100 µM
TGI (M14 melanoma): > 100 µM
TGI (NCI-H23 lung): > 100 µM
TGI (XF 498 CNS): > 100 µM
TGI (A498 renal): > 100 µM
TGI (A549 NSCLC): > 100 µM
TGI (SK-MEL-5 melanoma): > 100 µM
TGI (UACC-257 melanoma): > 100 µM
TGI (OVCAR-3 ovarian): > 100 µM
TGI (SK-MEL-2 melanoma): > 100 µM
TGI (OVCAR-4 ovarian): > 100 µM
TGI (UACC-62 melanoma): > 100 µM
TGI (DLD-1 colon): > 100 µM
TGI (KM12 colon): > 100 µM
TGI (NCI-H460 lung): > 100 µM
TGI (LXFL 529 NSCLC): > 100 µM
TGI (MALME-3M melanoma): > 100 µM
TGI (U251 CNS): > 100 µM
TGI (RPMI-8226 leukemia): > 100 µM
TGI (OVCAR-8 ovarian): > 100 µM
TGI (HCC-2998 colon): > 100 µM
TGI (OVCAR-5 ovarian): > 100 µM
TGI (EKVX NSCLC): > 100 µM
TGI (SNB-75 CNS): 63.2 µM
TGI (SK-MEL-28 melanoma): > 100 µM
TGI (CAKI-1 renal): > 100 µM
TGI (RXF 393 renal): > 100 µM
TGI (M19-MEL melanoma): > 100 µM
TGI (UO-31 renal): > 100 µM
TGI (IGROV1 ovarian): > 100 µM
TGI (HT29 colon): > 100 µM
TGI (CCRF-CEM leukemia): > 100 µM
TGI (LOX IMVI melanoma): > 100 µM
TGI (HCT-15 colon): > 100 µM
TGI (HCT-116 colon): > 100 µM
TGI (TK-10 renal): > 100 µM
TGI (KM20L2 colon): > 100 µM
TGI (HOP-92 NSCLC): > 100 µM
TGI (MOLT-4 leukemia): > 100 µM
TGI (HOP-62 NSCLC): > 100 µM
TGI (SF-268 CNS): > 100 µM
TGI (SN12C renal): > 100 µM
TGI (SNB-19 CNS): > 100 µM
TGI (786-0 renal): > 100 µM
TGI (ACHN renal): > 100 µM
TGI (K-562 leukemia): > 100 µM
